The record followed here is patent US11389395B2, “Encapsulation of microbubbles within the aqueous core of microcapsules” (DREXEL UNIVERSITY, priority 2009, dated 2022).

The nature of data set [1]: Survival of microbubbles made at different processing temperatures. Type of data set: physicochemical. The conditions noted are these: formulations included 5 mol % PEG6000MS; for survival of microbubbles, 7° C.: processing temperature 7° C.; for survival of microbubbles, 37° C.: processing temperature 37° C.; for survival of microbubbles, 60° C.: processing temperature 60° C. From the text:
Table 1 lists three phospholipid species, along with their gel transition temperatures, and the results of experiments attempting to make stable microbubbles with these species at different temperatures. All microbubble formulations included 5 mol % PEG6000MS.
In all cases in which the processing temperature was below the gel transition temperature, irrespective of the phospholipid identity, microbubble synthesis was feasible. Conversely, microbubble synthesis at temperatures greater than the gel transition temperature was not feasible, regardless of which phospholipid was used.

Data set [2] in a line: Microbubble growth on heating above the phospholipid chain melting temperature. Type of data set: physicochemical. The conditions noted are these: microbubbles made at 7° C., heated to 37° C. From the text: Use of a gel-phase lipid is required to prevent gas from escaping the microbubble. […] Indeed, these microbubbles expanded so as to fill the capillary in which they were contained and therefore became nonspherical, taking on the geometry of the capillary itself. […] Such growth may have resulted from simple expansion of individual microbubbles or by inward diffusion of gas.

Turning to `CCCCCCCCCCCCCCCCCC(=O)OC[C@H](COP(=O)([O-])OCC[N+](C)(C)C)OC(=O)CCCCCCCCCCCCCCCCC` [DSPC, 1,2-distearoyl-sn-glycero-3-phosphocholine], in data set [1], the “survival of microbubbles, 7° C.” value was “Yes”; the “survival of microbubbles, 37° C.” value was “Yes”; the “survival of microbubbles, 60° C.” value was “No”. For the same compound, the “microbubble growth upon heating” value in data set [2] is “No such growth was observed”.
On to `CCCCCCCCCCCCCC(=O)OC[C@H](COP(=O)([O-])OCC[N+](C)(C)C)OC(=O)CCCCCCCCCCCCC` [DMPC, dimyristoylphosphatidylcholine], for which, in data set [1], the “survival of microbubbles, 7° C.” value is listed as “Yes”; the “survival of microbubbles, 37° C.” value is recorded as “No”; the “survival of microbubbles, 60° C.” value is on record as “No”. In addition, the “microbubble growth upon heating” value in data set [2] is given as “grew spontaneously”.
